Like-named read-outs stand apart in the source and are kept apart here.
Columns and labels:
[1] = Permeability study in Caco-2 cell line; assay type: in vitro ADME; details: human; for efflux ratio at 2 h, 5 μM: Caco-2, pH 7.4; for Papp A→B at 2 h, 5 μM: Caco-2, apical to basolateral; for Papp A→B at 2 h, 5 μM / Papp B→A at 2 h, 5 μM: pH 7.4; for Papp B→A at 2 h, 5 μM: Caco-2, basolateral to apical
Procedure: Caco-2 cell suspensions were dispensed into the inserts of the 96-well HTS Transwell plate and cultivated for 14-18 days. Transepithelial electrical resistance (TEER) across the monolayer was measured using Millicell Epithelial Volt-Ohm measuring system. The Caco-2 plate was then washed twice with pre-warmed HBSS (pH 7.4) and incubated at 37° C. for 30 minutes. To determine the rate of drug transport in the apical to basolateral direction. 5 μM test compound was added to the Transwell insert and the wells in the receiver plate were filled with HBSS (pH 7.4). To determine the rate of drug transport in the basolateral to apical direction, 5 μM test compound was added to the receiver plate wells and then the Transwell inserts were filled with HBSS (pH 7.4). The plates were incubated at 37° C. for 2 hours. 50 μL samples from donor sides and receiver sides were transferred to wells of a new 96-well plate followed by the addition of 4 volume of cold methanol containing internal standards (IS). Samples were centrifuged and the supernatant was used for LC-MS/MS analysis. After the incubation, residue solutions were removed from the Transwell plates, and Lucifer yellow (100 μM) solution was added to each Transwell insert, followed by filling the receiver wells with HBSS. The plates were incubated at 37° C. for 30 minutes. 80 μL samples were removed from the apical and basolateral wells and the fluorescence of Lucifer yellow was measured in a microplate reader with 485 nm excitation and 530 nm emission.

[2] = PK study following IV and PO administration in male CD1 mice; assay type: in vivo, mouse; design: AUClast/D: unit: (ng*h/mL)/(mg/kg); details: for AUClast/D / CIobs / AUC(0-inf) / AUC(0-t) / C0 / half-life / MRT inf / Vd / Cmax / Tmax: plasma, mean of three mice; for CIobs: unit assumed; for F: PO 50 mg/kg versus IV 10 mg/kg; for AUC(0-inf) / AUC(0-t) / C0 / half-life / MRT inf / Vd / Cmax / Tmax: mouse; for MRT inf: read-out: MRTInf—obs; for Vd: read-out: Vss—obs
Procedure: The objective of this study was to determine the pharmacokinetic (PK) profile of LOX enzyme inhibiting compounds following IV and PO administrations in male CD1 mice.
Male CDT mice from a qualified provider were used for all studies. Mice were 6-8 weeks old at the time of the experiment (˜20-30 g body weight). All animals for IV & PO administration were fasted overnight and fed after 4 hours collection. The dose formulation was kept at room temperature no more than 2 hours.
Dose formulations were prepared fresh on the day of dosing and stored at ambient temperature. Dose formulations were as following: […]
Blood samples were collected from the dorsal metatarsal vein. Circa 0.03 mL were collected per time point and 0.3 mL at final time point via heart puncture. The blood samples were centrifuged at 4000 g for 5 minutes at 4° C. to obtain plasma and samples were immediately frozen in the upright position and stored at −75±15° C. prior to analysis.
Blood samples were collected at time points outlined in Table 12:
Acceptable time ranges for blood collection were as following: 5 min and 15 min: within +0.25 minute, 30 min, 1 hour, and 2 hours: within +2 minutes; 4 hours, 6 hours, 8 hours, and 24 hours: within +10 minutes.
Concentrations of LOX enzyme inhibiting compounds in the plasma were analyzed using a LC-MS/MS method. WinNonlin (Phoenix™, version 8.2) software was used for pharmacokinetic calculations. The following pharmacokinetic parameters were calculated, whenever possible from the plasma concentration versus time data:
IV administration: T1/2, C0, AUClast, AUCinf, MRTinf, Cl, Vss, Number of Points for Regression.
PO administration: T1/2, Cmax, Tmax, AUClast, AUCinf and F. Number of Points for Regression.
The pharmacokinetic data were described using descriptive statistics such as mean, standard deviation.
Results are outlined in Table 13 (IV), Table 14 (PO) and FIGS. 1-3. Data represent mean values from three mice.

[3] = Caco-2, pH 7.4, Caco-2, apical to basolateral, read-out: Recovery (%)AP-BL
[4] = Caco-2, pH 7.4, Caco-2, basolateral to apical, read-out: Recovery (%)BL-AP

**Q.** Which results are given for `CS(=O)(=O)[C@H]1C[C@@H](S(=O)(=O)c2cccc(CN)c2)CN(c2ccccc2)C1` (racemic) [Example 23, cis-(3-((-5-(Methylsulfonyl)-1-phenylpiperidin-3-yl)sulfonyl)phenyl)methanamine]?
**A.** efflux ratio at 2 h, 5 μM [1]: 61.4; recovery at 2 h, 5 μM [1, 3]: 86.5%; recovery at 2 h, 5 μM [1, 4]: 103%; Papp A→B at 2 h, 5 μM [1]: 0.38 ×10⁻⁶ cm/s; Papp B→A at 2 h, 5 μM [1]: 23.3 ×10⁻⁶ cm/s

**Q.** What does the source list for `CN(C)C(=O)N1C[C@@H](c2ccccc2)C[C@@H](S(=O)(=O)c2cccc(CN)c2)C1.O=C(O)C(F)(F)F` (racemic) [Example 74, cis-3-((3-(Aminomethyl)phenyl)sulfonyl)-N,N-dimethyl-5-phenylpiperidine-1-carboxamide 2,2,2-trifluoroacetate]?
**A.** efflux ratio at 2 h, 5 μM [1]: 47.1; recovery at 2 h, 5 μM [1, 3]: 77.4%; recovery at 2 h, 5 μM [1, 4]: 90.8%; Papp A→B at 2 h, 5 μM [1]: 0.71 ×10⁻⁶ cm/s; Papp B→A at 2 h, 5 μM [1]: 33.3 ×10⁻⁶ cm/s; AUClast/D ([2]; IV, 10 mg/kg): 196; CIobs ([2]; IV, 10 mg/kg): 85.5 mL/min/kg; F [2]: 90; AUClast/D ([2]; PO, 50 mg/kg): 138; AUC(0-inf) ([2]; IV, 10 mg/kg): 1970 ng·h/mL; AUC(0-t) ([2]; IV, 10 mg/kg): 1960 ng·h/mL; C0 ([2]; IV, 10 mg/kg): 3590 ng/mL; half-life ([2]; IV, 10 mg/kg): 53.4 min; MRT inf ([2]; IV, 10 mg/kg): 41.5 min; Vd ([2]; IV, 10 mg/kg): 3.55 L/kg; AUC(0-inf) ([2]; PO, 50 mg/kg): 8860 ng·h/mL; AUC(0-t) ([2]; PO, 50 mg/kg): 8850 ng·h/mL; Cmax ([2]; PO, 50 mg/kg): 5550 ng/mL; Tmax ([2]; PO, 50 mg/kg): 25 min; half-life ([2]; PO, 50 mg/kg): 49.3 min; MRT inf ([2]; PO, 50 mg/kg): 74.4 min

**Q.** What does the source list for `NCc1ccc(S(=O)(=O)N2C[C@H](C(=O)N3CCS(=O)(=O)CC3)C[C@@H](c3ccccc3)C2)s1.O=C(O)C(F)(F)F` (racemic) [Example 75B, trans-(1-((5-(Aminomethyl)thiophen-2-yl)sulfonyl)-5-phenylpiperidin-3-yl)(1,1-dioxidothiomorpholino)methanone 2,2,2-trifluoroacetate]?
**A.** efflux ratio at 2 h, 5 μM [1]: 30.1; recovery at 2 h, 5 μM [1, 3]: 72.1%; recovery at 2 h, 5 μM [1, 4]: 83.5%; Papp A→B at 2 h, 5 μM [1]: 0.4 ×10⁻⁶ cm/s; Papp B→A at 2 h, 5 μM [1]: 12.1 ×10⁻⁶ cm/s

**Q.** Which efflux ratio at 2 h, 5 μM [1] does the source give for `CS(=O)(=O)N1CCN(C(=O)[C@H]2C[C@@H](c3ccccc3F)CN(S(=O)(=O)c3ccc(CN)s3)C2)CC1.O=C(O)C(F)(F)F` (racemic) [Example 91, cis-(1-((5-(Aminomethyl)thiophen-2-yl)sulfonyl)-5-(2-fluorophenyl)piperidin-3-yl)(4-(methylsulfonyl)piperazin-1-yl)methanone 2,2,2-trifluoroacetate] here?
**A.** 138

**Q.** And the recovery at 2 h, 5 μM [1, 3]?
**A.** 68.6%

**Q.** What about the recovery at 2 h, 5 μM [1, 4] of the same molecule?
**A.** 78.2%

**Q.** And the Papp A→B at 2 h, 5 μM [1]?
**A.** 0.11 ×10⁻⁶ cm/s

**Q.** What about the Papp B→A at 2 h, 5 μM [1] of the same molecule?
**A.** 15.6 ×10⁻⁶ cm/s

**Q.** Which results are given for `NCc1ccnc(S(=O)(=O)N2C[C@@H](C(=O)N3CCS(=O)(=O)CC3)C[C@@H](C3CCCCC3)C2)c1.O=C(O)C(F)(F)F` (racemic) [Example 146, cis-(1-((4-(Aminomethyl)pyridin-2-yl)sulfonyl)-5-cyclohexylpiperidin-3-yl)(1,1-dioxidothiomorpholino)methanone 2,2,2-trifluoroacetate]?
**A.** AUClast/D ([2]; IV, 10 mg/kg): 164; CIobs ([2]; IV, 10 mg/kg): 103 mL/min/kg; F [2]: 7.2; AUClast/D ([2]; PO, 50 mg/kg): 11.3; AUC(0-inf) ([2]; IV, 10 mg/kg): 1650 ng·h/mL; AUC(0-t) ([2]; IV, 10 mg/kg): 1640 ng·h/mL; C0 ([2]; IV, 10 mg/kg): 6150 ng/mL; half-life ([2]; IV, 10 mg/kg): 287 min; MRT inf ([2]; IV, 10 mg/kg): 51 min; Vd ([2]; IV, 10 mg/kg): 5.12 L/kg; AUC(0-inf) ([2]; PO, 50 mg/kg): 590 ng·h/mL; AUC(0-t) ([2]; PO, 50 mg/kg): 563 ng·h/mL; Cmax ([2]; PO, 50 mg/kg): 503 ng/mL; Tmax ([2]; PO, 50 mg/kg): 15 min; half-life ([2]; PO, 50 mg/kg): 337 min; MRT inf ([2]; PO, 50 mg/kg): 221 min

**Q.** With `NCc1ccc(S(=O)(=O)N2C[C@H](C(=O)N3CCOCC3)C[C@H](c3ccccc3)C2)s1` [Example 13B, ((3R,5R)-1-((5-(aminomethyl)thiophen-2-yl)sulfonyl)-5-phenylpiperidin-3-yl)(morpholino)methanone] as the molecule, how does the efflux ratio at 2 h, 5 μM [1] read?
**A.** 24.5

**Q.** What about the recovery at 2 h, 5 μM [1, 3] of the same molecule?
**A.** 76.8%

**Q.** What about the recovery at 2 h, 5 μM [1, 4] of the same molecule?
**A.** 78.8%

**Q.** What about the Papp A→B at 2 h, 5 μM [1] of the same molecule?
**A.** 1.16 ×10⁻⁶ cm/s

**Q.** What about the Papp B→A at 2 h, 5 μM [1] of the same molecule?
**A.** 28.5 ×10⁻⁶ cm/s

— patent US20230310445A1, “LOX ENZYME INHIBITING METHODS AND COMPOSITIONS” (ANOVIA BIOSCIENCES, INC., priority 2020, published 2023)
